Tests used:
Test in all cases: Dundee kinase panel
Format in all cases: biochemical
Conditions in all cases: for remaining activity at 1 µM: read-out: residual activity
ASK1 = molecular target: T1, ASK1 (Homo sapiens, UniProt Q99683)
T1 construct: lines 1-140) and Reaction Biology
T1 sequence (Q99683 1-1374): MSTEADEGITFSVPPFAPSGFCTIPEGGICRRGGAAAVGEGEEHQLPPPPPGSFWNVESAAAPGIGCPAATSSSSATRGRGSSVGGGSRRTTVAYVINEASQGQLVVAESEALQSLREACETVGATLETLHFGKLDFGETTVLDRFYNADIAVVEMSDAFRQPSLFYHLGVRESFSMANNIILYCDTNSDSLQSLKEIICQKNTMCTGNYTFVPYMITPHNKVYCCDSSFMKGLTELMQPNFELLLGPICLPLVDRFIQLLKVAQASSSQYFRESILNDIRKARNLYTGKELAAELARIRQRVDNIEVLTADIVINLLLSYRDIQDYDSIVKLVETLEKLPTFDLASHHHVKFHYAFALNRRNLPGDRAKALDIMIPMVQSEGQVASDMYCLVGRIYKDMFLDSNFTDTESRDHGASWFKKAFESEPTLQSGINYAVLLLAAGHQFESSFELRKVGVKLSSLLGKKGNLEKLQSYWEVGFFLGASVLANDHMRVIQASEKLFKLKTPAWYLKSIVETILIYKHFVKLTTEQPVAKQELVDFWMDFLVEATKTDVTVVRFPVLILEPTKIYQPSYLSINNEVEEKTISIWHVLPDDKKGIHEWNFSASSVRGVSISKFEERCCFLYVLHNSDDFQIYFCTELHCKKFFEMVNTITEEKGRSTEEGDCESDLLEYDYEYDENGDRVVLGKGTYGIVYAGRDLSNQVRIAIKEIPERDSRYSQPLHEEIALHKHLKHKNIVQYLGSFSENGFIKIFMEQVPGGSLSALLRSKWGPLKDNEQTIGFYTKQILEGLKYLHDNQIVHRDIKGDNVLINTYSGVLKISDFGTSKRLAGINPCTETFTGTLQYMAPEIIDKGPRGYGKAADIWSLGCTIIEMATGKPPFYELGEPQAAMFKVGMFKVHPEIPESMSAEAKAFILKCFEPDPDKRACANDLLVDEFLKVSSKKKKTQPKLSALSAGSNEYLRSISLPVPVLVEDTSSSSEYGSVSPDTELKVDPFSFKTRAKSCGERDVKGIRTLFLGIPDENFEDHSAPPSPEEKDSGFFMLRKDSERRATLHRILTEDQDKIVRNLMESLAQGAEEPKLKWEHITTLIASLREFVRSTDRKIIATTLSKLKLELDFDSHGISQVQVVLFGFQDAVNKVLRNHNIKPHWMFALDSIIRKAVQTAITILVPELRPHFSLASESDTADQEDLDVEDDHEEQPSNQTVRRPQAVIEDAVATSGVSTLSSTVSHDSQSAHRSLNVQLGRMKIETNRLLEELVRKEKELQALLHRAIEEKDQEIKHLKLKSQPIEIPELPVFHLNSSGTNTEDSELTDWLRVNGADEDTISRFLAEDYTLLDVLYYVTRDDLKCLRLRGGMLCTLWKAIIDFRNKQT
Description: (§1) Compounds were screened at 1 μM. For key hits, pIC50 values were then determined by HTRF as above. […] Stability in mouse and human liver microsomes was determined by Cyprotex.

DYRK2 = molecular target: T2, DYRK2 (Homo sapiens, UniProt Q92630)
T2 construct: lines 1-140) and Reaction Biology
T2 sequence (Q92630 1-601): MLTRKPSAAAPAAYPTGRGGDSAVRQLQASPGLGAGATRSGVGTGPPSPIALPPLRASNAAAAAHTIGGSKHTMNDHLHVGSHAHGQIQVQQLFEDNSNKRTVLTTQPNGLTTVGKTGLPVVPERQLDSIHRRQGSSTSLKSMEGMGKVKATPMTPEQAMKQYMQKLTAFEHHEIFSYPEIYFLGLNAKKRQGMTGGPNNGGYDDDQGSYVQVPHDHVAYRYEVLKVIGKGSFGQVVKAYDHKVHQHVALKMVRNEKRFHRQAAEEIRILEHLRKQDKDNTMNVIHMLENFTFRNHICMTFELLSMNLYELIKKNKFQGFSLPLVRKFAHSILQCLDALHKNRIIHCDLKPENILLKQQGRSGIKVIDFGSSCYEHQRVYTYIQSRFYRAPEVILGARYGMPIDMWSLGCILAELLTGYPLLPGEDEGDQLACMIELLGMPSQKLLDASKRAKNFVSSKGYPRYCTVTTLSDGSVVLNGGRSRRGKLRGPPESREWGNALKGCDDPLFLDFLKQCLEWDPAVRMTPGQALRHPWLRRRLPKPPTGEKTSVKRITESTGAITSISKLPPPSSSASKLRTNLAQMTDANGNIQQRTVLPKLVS
Description: as §1

ERK1 = molecular target: T3, ERK1 (Homo sapiens, UniProt P27361)
T3 construct: lines 1-140) and Reaction Biology
Description: as §1

PAK5 = molecular target: T4, PAK5 (Homo sapiens, UniProt Q9P286)
T4 construct: lines 1-140) and Reaction Biology
Description: as §1

SRPK1 = molecular target: T5, SRPK1 (Homo sapiens, UniProt Q96SB4)
T5 construct: lines 1-140) and Reaction Biology
Description: as §1

TTK = molecular target: T6, TTK (Homo sapiens, UniProt P33981)
T6 construct: lines 1-140) and Reaction Biology
T6 sequence (P33981 1-857): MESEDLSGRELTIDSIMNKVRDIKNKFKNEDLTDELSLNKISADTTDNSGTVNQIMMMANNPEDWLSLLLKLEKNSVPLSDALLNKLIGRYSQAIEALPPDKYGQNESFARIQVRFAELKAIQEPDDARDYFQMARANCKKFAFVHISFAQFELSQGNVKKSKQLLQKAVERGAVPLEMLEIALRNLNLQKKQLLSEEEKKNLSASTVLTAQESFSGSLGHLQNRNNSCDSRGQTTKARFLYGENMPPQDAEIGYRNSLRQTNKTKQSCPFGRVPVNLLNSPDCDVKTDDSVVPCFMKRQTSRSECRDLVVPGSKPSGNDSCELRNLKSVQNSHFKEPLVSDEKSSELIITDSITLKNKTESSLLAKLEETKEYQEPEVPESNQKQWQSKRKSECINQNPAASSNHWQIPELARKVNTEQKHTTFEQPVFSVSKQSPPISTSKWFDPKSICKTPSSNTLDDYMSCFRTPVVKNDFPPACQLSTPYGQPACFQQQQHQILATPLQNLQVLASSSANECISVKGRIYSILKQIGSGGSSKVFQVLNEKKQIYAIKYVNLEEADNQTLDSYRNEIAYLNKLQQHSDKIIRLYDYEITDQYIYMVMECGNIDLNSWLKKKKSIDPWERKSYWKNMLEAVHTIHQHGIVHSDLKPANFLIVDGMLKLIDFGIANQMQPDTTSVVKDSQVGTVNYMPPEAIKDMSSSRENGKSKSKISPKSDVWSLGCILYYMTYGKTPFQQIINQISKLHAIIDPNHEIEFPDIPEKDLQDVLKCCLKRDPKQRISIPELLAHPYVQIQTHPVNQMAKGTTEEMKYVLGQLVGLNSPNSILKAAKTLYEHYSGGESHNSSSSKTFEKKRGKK
Description: as §1

T5 sequence (Q96SB4 whole entry): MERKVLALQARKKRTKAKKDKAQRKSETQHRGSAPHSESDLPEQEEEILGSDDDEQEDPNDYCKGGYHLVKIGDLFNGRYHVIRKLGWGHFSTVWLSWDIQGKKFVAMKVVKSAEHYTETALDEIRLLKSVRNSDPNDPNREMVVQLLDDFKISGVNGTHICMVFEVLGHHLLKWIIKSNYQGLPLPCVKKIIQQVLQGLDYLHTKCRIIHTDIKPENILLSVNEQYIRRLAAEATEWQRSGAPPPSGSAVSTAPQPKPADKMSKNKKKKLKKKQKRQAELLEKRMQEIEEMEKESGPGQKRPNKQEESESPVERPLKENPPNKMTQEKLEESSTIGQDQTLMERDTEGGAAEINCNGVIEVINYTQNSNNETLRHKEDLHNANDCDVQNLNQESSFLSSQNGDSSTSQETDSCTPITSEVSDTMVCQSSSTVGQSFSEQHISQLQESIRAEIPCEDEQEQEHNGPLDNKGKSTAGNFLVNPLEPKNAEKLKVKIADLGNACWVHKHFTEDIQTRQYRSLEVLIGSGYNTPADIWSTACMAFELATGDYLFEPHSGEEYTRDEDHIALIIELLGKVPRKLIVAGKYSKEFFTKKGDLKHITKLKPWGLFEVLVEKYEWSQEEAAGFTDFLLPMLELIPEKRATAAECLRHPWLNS
T4 sequence (Q9P286 whole entry): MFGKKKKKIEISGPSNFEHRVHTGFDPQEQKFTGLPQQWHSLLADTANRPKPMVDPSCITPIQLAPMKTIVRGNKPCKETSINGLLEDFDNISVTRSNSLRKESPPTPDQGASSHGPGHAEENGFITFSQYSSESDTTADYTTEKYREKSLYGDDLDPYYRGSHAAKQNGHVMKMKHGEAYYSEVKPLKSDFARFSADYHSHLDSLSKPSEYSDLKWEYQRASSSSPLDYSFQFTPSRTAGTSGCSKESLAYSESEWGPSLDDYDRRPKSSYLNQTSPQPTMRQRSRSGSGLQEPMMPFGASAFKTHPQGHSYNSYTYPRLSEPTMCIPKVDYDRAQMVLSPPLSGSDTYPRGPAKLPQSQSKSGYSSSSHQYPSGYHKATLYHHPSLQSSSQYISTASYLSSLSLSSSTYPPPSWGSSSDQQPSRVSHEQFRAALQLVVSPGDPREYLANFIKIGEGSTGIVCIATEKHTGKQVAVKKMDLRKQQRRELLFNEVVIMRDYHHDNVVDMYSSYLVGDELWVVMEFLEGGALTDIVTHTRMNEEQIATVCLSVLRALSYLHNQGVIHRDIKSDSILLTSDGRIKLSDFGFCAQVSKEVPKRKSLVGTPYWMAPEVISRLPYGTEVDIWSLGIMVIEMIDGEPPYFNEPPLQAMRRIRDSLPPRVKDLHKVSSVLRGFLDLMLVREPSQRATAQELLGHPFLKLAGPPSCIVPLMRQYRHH
T3 sequence (P27361 whole entry): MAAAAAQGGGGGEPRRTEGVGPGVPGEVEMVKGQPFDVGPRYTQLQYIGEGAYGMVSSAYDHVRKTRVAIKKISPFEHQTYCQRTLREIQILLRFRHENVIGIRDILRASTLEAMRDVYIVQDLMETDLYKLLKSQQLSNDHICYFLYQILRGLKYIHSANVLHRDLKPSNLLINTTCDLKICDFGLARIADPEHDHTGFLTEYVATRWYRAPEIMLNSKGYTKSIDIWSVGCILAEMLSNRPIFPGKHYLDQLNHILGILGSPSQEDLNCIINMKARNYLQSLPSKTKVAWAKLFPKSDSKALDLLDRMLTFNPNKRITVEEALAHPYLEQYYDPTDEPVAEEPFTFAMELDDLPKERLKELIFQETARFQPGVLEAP

For O=C1Cc2c([nH]c3ccc(Br)cc23)-c2ccccc2N1 [Kenpaullone], the remaining activity at 1 µM (ASK1) was 68%, the remaining activity at 1 µM (DYRK2) was 91% and the remaining activity at 1 µM (ERK1) was 78%. The remaining activity at 1 µM (PAK5) was 12%, the remaining activity at 1 µM (SRPK1) was 36% and the remaining activity at 1 µM (TTK) was 97%.

With COCCOc1ccc(-c2cn(-c3ccccc3)c3nc[nH]c(=O)c23)cc1 [DMX-5804, 5-[4-(2-methoxy-ethoxy)-phenyl]-7-phenyl-3,7-dihydro-pyrrolo[2,3-d]pyrimidin-4-one] the remaining activity at 1 µM (ASK1) was 108%, the remaining activity at 1 µM (DYRK2) was 115% and the remaining activity at 1 µM (ERK1) was 107%. The remaining activity at 1 µM (PAK5) was 105%, the remaining activity at 1 µM (SRPK1) was 91% and the remaining activity at 1 µM (TTK) was 105%.

Molecule O=C1Nc2ccc(I)cc2/C1=C/c1cc(Br)c(O)c(Br)c1 [GW5074] has a remaining activity at 1 µM (ASK1) of 56%, a remaining activity at 1 µM (DYRK2) of 13% and a remaining activity at 1 µM (ERK1) of 87%. For the same molecule, the remaining activity at 1 µM (PAK5) was 77%, the remaining activity at 1 µM (SRPK1) was 8% and the remaining activity at 1 µM (TTK) was 88%.

In the case of Nc1ncc(C(=O)NC2CN(C(=O)C3CC3)C2)c2ccc(-c3cccc(F)c3)nc12 [GNE-495], the residual activity (ASK1; 1 μM) is reported as 84%, the residual activity (DYRK2; 1 μM) is reported as 55% and the residual activity (ERK1; 1 μM) is reported as 143%. The residual activity (PAK5; 1 μM) was 55%, the residual activity (SRPK1; 1 μM) was 105% and the residual activity (TTK; 1 μM) was 87%.

With Oc1ncnc2c1c(-c1ccccc1)cn2-c1ccccc1 [F1386-0303, 5,7-diphenyl-7H-pyrrolo[2,3-d]pyrimidin-4-ol] the remaining activity at 1 µM (ASK1) was 93%, the remaining activity at 1 µM (DYRK2) was 93% and the remaining activity at 1 µM (ERK1) was 124%. For the same molecule, the remaining activity at 1 µM (PAK5) was 105%, the remaining activity at 1 µM (SRPK1) was 112% and the remaining activity at 1 µM (TTK) was 97%.

— article PMC6458995, “MAP4K4 Inhibition Promotes Survival of Human Stem Cell-Derived Cardiomyocytes and Reduces Infarct Size In Vivo” (Cell Stem Cell, 2019)
